The IC50 is the midpoint of a concentration-inhibition curve.

SMILES strings stand for the structures.

In this test the target is T1, HIV Protease (Human immunodeficiency virus type 1 group M subtype B, UniProt P04585).
T1 construct: the protease expressed in Eschericia coli; made in house; host or cells: Escherichia coli
The test is described as follows: Inhibition of microbial expressed HIV protease (peptide substrate cleavage, HPLC of products). The class given is biochemical. The note with it: protease expressed in Eschericia coli, pH 5.5, 30° C., 1 hour. Here is the method:
Assay for Inhibition of Microbial Expressed HIV Protease
Inhibition studies of the reaction of the protease expressed in Eschericia coli with a peptide substrate [Val-Ser-Gln-Asn-(betanapthyl)Ala-Pro-Ile-Val, 0.5 mg/mL at the time the reaction is initiated] were in 50 mM Na acetate, pH 5.5, at 30° C. for 1 hour. Various concentrations of inhibitor in 1.0 μl DMSO were added to 25 μl of the peptide solution in water. The reaction is initiated by the addition of 15 μl of 0.33 nM protease (0.11 ng) in a solution of 0.133M Na acetate pH 5.5 and 0.1% bovine serum albumin. The reaction was quenched with 160 μl of 5% phosphoric acid. Products of the reaction were separated by HPLC (VYDAC wide pore 5 cm C-18 reverse phase, acetonitrile gradient, 0.1% phosphoric acid). The extent of inhibition of the reaction was determined from the peak heights of the products.

In turn, `O=C(N[C@H]1c2ccccc2C[C@H]1O)[C@H](Cc1ccccc1)C[C@H](O)CNC(=O)[C@H]1[C@H](C(=O)NCCc2ccccc2)[C@@H]2C=C[C@H]1C2` [A] had an IC50 of 0.055 nM.

Take `CC(C)(C)NC(=O)[C@H]1[C@H](C(=O)NC[C@@H](O)C[C@@H](Cc2ccccc2)C(=O)N[C@H]2c3ccccc3C[C@H]2O)[C@H]2C=C[C@@H]1C2` [B]: the IC50 was 82.8 nM.

`O=C(N[C@H]1c2ccccc2C[C@H]1O)[C@H](Cc1ccccc1)C[C@H](O)CNC(=O)[C@H]1[C@H](C(=O)N(Cc2ccccc2)Cc2ccccc2)[C@@H]2C=C[C@H]1C2` [C]: the midpoint of inhibition, the IC50, lay at 0.025 nM.

For the origin of these results see patent US5811462A, “HIV Protease inhibitors useful for the treatment of AIDS” (Merck & Co., Inc., priority 1997, dated 1998).
